Tested on: MV-4-11 cells
Assay: Gene expression microarray analysis (Affymetrix PrimeView) and GSEA
Format: cell-based, human
Design: RFU PODN (11730768_x_at) / Fold change /veh PODN (11730768_x_at) / RFU LINC00158 (11744669_a_at) / Fold change /veh LINC00158 (11744669_a_at) / RFU DUSP10 (11751237_a_at) / Fold change /veh DUSP10 (11751237_a_at) / RFU ID3 (11757404_x_at) / Fold change /veh ID3 (11757404_x_at) / RFU PLEKHG5 (11737974_s_at) / Fold change /veh PLEKHG5 (11737974_s_at) / RFU LRRC4B (11730491_at) / Fold change /veh LRRC4B (11730491_at) / RFU GIMAP4 (11747438_a_at) / Fold change /veh GIMAP4 (11747438_a_at) / RFU KRT8 (11758183_x_at) / Fold change /veh KRT8 (11758183_x_at) / RFU CNN1 (11734310_a_at) / Fold change /veh CNN1 (11734310_a_at) / RFU VPS37D (11726825_at) / Fold change /veh VPS37D (11726825_at) / RFU C10orf10 (11716522_x_at) / Fold change /veh C10orf10 (11716522_x_at) / RFU KIR2DL2 /// KIR2DL4 /// KIR2DL5A /// KIR2DL5B /// KIR2DS1 /// KIR2DS2 /// KIR2DS3 /// KIR2DS4 /// KIR3DL3 /// KIR3DL3 /// KIR3DS1 (11738374_at) / Fold change /veh KIR2DL2 /// KIR2DL4 /// KIR2DL5A /// KIR2DL5B /// KIR2DS1 /// KIR2DS2 /// KIR2DS3 /// KIR2DS4 /// KIR3DL3 /// KIR3DL3 /// KIR3DS1 (11738374_at) / RFU C1QL1 (11718748_at) / Fold change /veh C1QL1 (11718748_at) / RFU TMPRSS4 (11747572_a_at) / Fold change /veh TMPRSS4 (11747572_a_at) / RFU HAMP (11756126_x_at) / Fold change /veh HAMP (11756126_x_at) / RFU RNFT2 (11725882_a_at) / Fold change /veh RNFT2 (11725882_a_at) / RFU NR4A2 (11747474_a_at) / Fold change /veh NR4A2 (11747474_a_at) / RFU ABCC12 (11746883_a_at) / Fold change /veh ABCC12 (11746883_a_at) / RFU TMEM136 (11760407_x_at) / Fold change /veh TMEM136 (11760407_x_at) / RFU CLDN22 /// WWC2 (11732394_at) / Fold change /veh CLDN22 /// WWC2 (11732394_at) / RFU HLA-DPB1 (11760878_x_at) / Fold change /veh HLA-DPB1 (11760878_x_at) / RFU SPINT1 (11716480_a_at) / Fold change /veh SPINT1 (11716480_a_at) / RFU GAP43 (11754022_s_at) / Fold change /veh GAP43 (11754022_s_at) / RFU A4GNT (11735810_at) / Fold change /veh A4GNT (11735810_at) / RFU PRB3 (11715151_x_at) / Fold change /veh PRB3 (11715151_x_at) / RFU TUBB4B (11761932_at) / Fold change /veh TUBB4B (11761932_at) / RFU CAPN14 (11732068_a_at) / Fold change /veh CAPN14 (11732068_a_at) / RFU TMCC2 (11721928_a_at) / Fold change /veh TMCC2 (11721928_a_at) / RFU IRGQ (11745062_a_at) / Fold change /veh IRGQ (11745062_a_at) / RFU FAM174B (11720279_a_at) / Fold change /veh FAM174B (11720279_a_at) / RFU TMPRSS4 (11748680_a_at) / Fold change /veh TMPRSS4 (11748680_a_at) / RFU FAM212B (11763350_a_at) / Fold change /veh FAM212B (11763350_a_at) / RFU PLEKHG5 (11743358_a_at) / Fold change /veh PLEKHG5 (11743358_a_at) / RFU ZSCAN30 (11745921_a_at) / Fold change /veh ZSCAN30 (11745921_a_at) / RFU CMKLR1 (11741424_a_at) / Fold change /veh CMKLR1 (11741424_a_at) / RFU LOC101060620 /// MAPK8IP1 (11723275_at) / Fold change /veh LOC101060620 /// MAPK8IP1 (11723275_at) / RFU SPTSSB (11747773_x_at) / Fold change /veh SPTSSB (11747773_x_at) / RFU PRSS12 (11739890_at) / Fold change /veh PRSS12 (11739890_at) / RFU BIN1 (11741810_x_at) / Fold change /veh BIN1 (11741810_x_at) / RFU WNT11 (11732464_a_at) / Fold change /veh WNT11 (11732464_a_at) / RFU C10orf10 (11716521_a_at) / Fold change /veh C10orf10 (11716521_a_at) / RFU C5orf56 (11738089_at) / Fold change /veh C5orf56 (11738089_at) / RFU CYB561 (11721691_x_at) / Fold change /veh CYB561 (11721691_x_at) / RFU ANKRD19P (11752326_a_at) / Fold change /veh ANKRD19P (11752326_a_at) / RFU OR2T12 /// OR2T33 /// OR2T8 (11738714_s_at) / Fold change /veh OR2T12 /// OR2T33 /// OR2T8 (11738714_s_at) / RFU VCAN (11748164_a_at) / Fold change /veh VCAN (11748164_a_at) / RFU JSRP1 (11732532_at) / Fold change /veh JSRP1 (11732532_at) / RFU KRTAP10-11 (11738290_x_at) / Fold change /veh KRTAP10-11 (11738290_x_at) / RFU MYO3A (11730013_a_at) / Fold change /veh MYO3A (11730013_a_at) / RFU EBF3 (11725865_a_at) / Fold change /veh EBF3 (11725865_a_at) / RFU CAMK2N1 (11719241_x_at) / Fold change /veh CAMK2N1 (11719241_x_at) / RFU C5orf56 (11738088_a_at) / Fold change /veh C5orf56 (11738088_a_at) / RFU OLFML3 (11715873_a_at) / Fold change /veh OLFML3 (11715873_a_at) / RFU LOC100653217 /// NTM (11731650_a_at) / Fold change /veh LOC100653217 /// NTM (11731650_a_at) / RFU MAPK11 (11762145_a_at) / Fold change /veh MAPK11 (11762145_a_at) / RFU FIZ1 (11724087_x_at) / Fold change /veh FIZ1 (11724087_x_at) / RFU OASL (11726364_x_at) / Fold change /veh OASL (11726364_x_at) / RFU SOX15 (11748057_x_at) / Fold change /veh SOX15 (11748057_x_at) / RFU CD79A (11719716_a_at) / Fold change /veh CD79A (11719716_a_at) / RFU HIST1H1D (11736915_at) / Fold change /veh HIST1H1D (11736915_at) / RFU CASKIN2 (11723855_a_at) / Fold change /veh CASKIN2 (11723855_a_at) / RFU LOC730098 (11760151_x_at) / Fold change /veh LOC730098 (11760151_x_at) / RFU OR4N2 (11742367_at) / Fold change /veh OR4N2 (11742367_at) / RFU PRRT2 (11749266_a_at) / Fold change /veh PRRT2 (11749266_a_at) / RFU SNX32 (11753110_a_at) / Fold change /veh SNX32 (11753110_a_at) / RFU CDHR5 (11726645_a_at) / Fold change /veh CDHR5 (11726645_a_at) / RFU RCAN1 (11760418_a_at) / Fold change /veh RCAN1 (11760418_a_at) / RFU FAM167A (11723789_a_at) / Fold change /veh FAM167A (11723789_a_at) / RFU FAM26E (11764081_at) / Fold change /veh FAM26E (11764081_at) / RFU ISYNA1 (11749810_s_at) / Fold change /veh ISYNA1 (11749810_s_at) / RFU ACY1 (11761880_at) / Fold change /veh ACY1 (11761880_at) / RFU 11764098_at / Fold change /veh 11764098_at / RFU SAMD14 (11745864_x_at) / Fold change /veh SAMD14 (11745864_x_at) / RFU NPB (11741838_a_at) / Fold change /veh NPB (11741838_a_at) / RFU TMPRSS6 (11731388_a_at) / Fold change /veh TMPRSS6 (11731388_a_at) / RFU KRTAP10-2 (11738614_at) / Fold change /veh KRTAP10-2 (11738614_at) / RFU ARHGAP8 /// PRR5-ARHGAP8 (11727945_x_at) / Fold change /veh ARHGAP8 /// PRR5-ARHGAP8 (11727945_x_at) / RFU KRTAP5-7 /// NADSYN1 (11734609_at) / Fold change /veh KRTAP5-7 /// NADSYN1 (11734609_at) / RFU RASL12 (11751679_a_at) / Fold change /veh RASL12 (11751679_a_at) / RFU CDKN2B (11736163_a_at) / Fold change /veh CDKN2B (11736163_a_at) / RFU PRF1 (11729649_at) / Fold change /veh PRF1 (11729649_at) / RFU, ZNF638 /// ZNF638-IT1 / Fold change vs veh, ZNF638 /// ZNF638-IT1 / RFU, PANK3 / Fold change vs veh, PANK3 / RFU, SH3YL1 / Fold change vs veh, SH3YL1 / RFU, ZEB2 / Fold change vs veh, ZEB2 / RFU, NRIP1 / Fold change vs veh, NRIP1 / RFU, PTTG1IP / Fold change vs veh, PTTG1IP / RFU, CAPN2 / Fold change vs veh, CAPN2 / RFU, MED14 / Fold change vs veh, MED14 / RFU, SNORA58 / Fold change vs veh, SNORA58 / RFU, C1orf63 / Fold change vs veh, C1orf63 / RFU, LRRFIP1 / Fold change vs veh, LRRFIP1 / RFU, NDUFAF7 / Fold change vs veh, NDUFAF7 / RFU, SLC12A2 / Fold change vs veh, SLC12A2 / RFU, IBTK / Fold change vs veh, IBTK / RFU, ESF1 / Fold change vs veh, ESF1 / Fold change vs veh, TMEM50B / RFU, TAOK1 / Fold change vs veh, TAOK1 / RFU, ACBD3 / Fold change vs veh, ACBD3 / RFU, TMA16 / Fold change vs veh, TMA16 / RFU, RWDD3 / Fold change vs veh, RWDD3 / RFU, BCAT1 / Fold change vs veh, BCAT1 / RFU, EDEM3 / Fold change vs veh, EDEM3 / RFU, TMEM33 / Fold change vs veh, TMEM33 / RFU, WDR75 / Fold change vs veh, WDR75 / RFU, AHCTF1 / Fold change vs veh, AHCTF1 / RFU, TFRC / Fold change vs veh, TFRC / RFU, ZDHHC17 / Fold change vs veh, ZDHHC17 / RFU, NOM1 / Fold change vs veh, NOM1 / RFU, ARL8B / Fold change vs veh, ARL8B / RFU, ZBTB11 / Fold change vs veh, ZBTB11 / RFU, TAMM41 / Fold change vs veh, TAMM41 / RFU, KIAA1704 /// LOC100996395 / Fold change vs veh, KIAA1704 /// LOC100996395 / RFU, ING1 / Fold change vs veh, ING1 / RFU, TRMT61B / Fold change vs veh, TRMT61B / RFU, FUBP3 / Fold change vs veh, FUBP3 / RFU, TP53 / Fold change vs veh, TP53 / RFU, TNKS2 / Fold change vs veh, TNKS2 / RFU, ZFP14 / Fold change vs veh, ZFP14 / RFU, ACTR2 / Fold change vs veh, ACTR2 / RFU, PPP3R1 / Fold change vs veh, PPP3R1 / RFU, PIK3R1 / Fold change vs veh, PIK3R1 / RFU, HNRNPA1 / Fold change vs veh, HNRNPA1 / RFU, RNF170 / Fold change vs veh, RNF170 / RFU, ZNF28 / Fold change vs veh, ZNF28 / RFU, RNGTT / Fold change vs veh, RNGTT / RFU, OGT / Fold change vs veh, OGT / RFU, BRD1 / Fold change vs veh, BRD1 / RFU, MARS / Fold change vs veh, MARS / RFU, ZNF655 / Fold change vs veh, ZNF655 / RFU, FAHD1 / Fold change vs veh, FAHD1 / RFU, BDP1 / Fold change vs veh, BDP1 / RFU, LRRCC1 / Fold change vs veh, LRRCC1 / RFU, ARID1A / Fold change vs veh, ARID1A / RFU, ZNF146 / Fold change vs veh, ZNF146 / RFU, ZNF330 / Fold change vs veh, ZNF330 / RFU, GPN3 / Fold change vs veh, GPN3 / RFU, C9orf123 / Fold change vs veh, C9orf123 / RFU, N4BP2L2 / Fold change vs veh, N4BP2L2 / RFU, ARFIP1 / Fold change vs veh, ARFIP1 / RFU, FAM179B / Fold change vs veh, FAM179B / RFU, BCL10 / Fold change vs veh, BCL10 / RFU, UHRF1BP1L / Fold change vs veh, UHRF1BP1L / RFU, BET1 / Fold change vs veh, BET1 / RFU, CNOT2 / Fold change vs veh, CNOT2 / RFU, ZNF268 / Fold change vs veh, ZNF268 / Fold change vs veh, ZNF507 / RFU, DGCR2 / Fold change vs veh, DGCR2 / RFU, WDSUB1 / Fold change vs veh, WDSUB1 / Fold change vs veh, HSP90B1 /// MIR3652 / RFU, ADSS / Fold change vs veh, ADSS / RFU, GK / Fold change vs veh, GK / RFU, ZNF148 / Fold change vs veh, ZNF148 / RFU, TAF9 / Fold change vs veh, TAF9 / RFU, SLC1A5 / Fold change vs veh, SLC1A5 / RFU, SLMO2 / Fold change vs veh, SLMO2 / RFU, ABCC4 / Fold change vs veh, ABCC4 / RFU, LOC101060439 /// RAP1B / Fold change vs veh, LOC101060439 /// RAP1B / RFU, RFX7 / Fold change vs veh, RFX7 / RFU, GTPBP10 / Fold change vs veh, GTPBP10 / RFU, CNEP1R1 / Fold change vs veh, CNEP1R1 / RFU, BIVM-ERCC5 /// ERCC5 / Fold change vs veh, BIVM-ERCC5 /// ERCC5 / RFU, ILF3 / Fold change vs veh, ILF3 / RFU 11762660_at / Fold change /veh 11762660_at / RFU VCAN (11757783_s_at) / Fold change /veh VCAN (11757783_s_at) / RFU DDX43 (11728927_at) / Fold change /veh DDX43 (11728927_at) / RFU KRT8 (11758188_x_at) / Fold change /veh KRT8 (11758188_x_at) / RFU NKD1 (11759106_at) / Fold change /veh NKD1 (11759106_at) / RFU SRD5A1 (11742802_a_at) / Fold change /veh SRD5A1 (11742802_a_at) / RFU TPSAB1 /// TPSB2 (11721975_s_at) / Fold change /veh TPSAB1 /// TPSB2 (11721975_s_at) / RFU GSTM3 (11746129_a_at) / Fold change /veh GSTM3 (11746129_a_at) / RFU IL23R (11737362_x_at) / Fold change /veh IL23R (11737362_x_at) / RFU TMEM51 (11727254_a_at) / Fold change /veh TMEM51 (11727254_a_at) / RFU PIWIL2 (11732686_x_at) / Fold change /veh PIWIL2 (11732686_x_at) / RFU ORM1 (11744905_x_at) / Fold change /veh ORM1 (11744905_x_at) / RFU CCDC152 (11743942_at) / Fold change /veh CCDC152 (11743942_at) / RFU ECM1 (11717891_a_at) / Fold change /veh ECM1 (11717891_a_at) / RFU IL23R (11748794_a_at) / Fold change /veh IL23R (11748794_a_at) / RFU TNFAIP8L3 (11732012_x_at) / Fold change /veh TNFAIP8L3 (11732012_x_at) / RFU MBOAT4 (11741988_at) / Fold change /veh MBOAT4 (11741988_at) / RFU 11764193_at / Fold change /veh 11764193_at / RFU TMEM53 (11763286_at) / Fold change /veh TMEM53 (11763286_at) / RFU MAGEB2 (11727129_at) / Fold change /veh MAGEB2 (11727129_at) / RFU TMEM200A (11744735_a_at) / Fold change /veh TMEM200A (11744735_a_at) / RFU CCDC152 (11751479_a_at) / Fold change /veh CCDC152 (11751479_a_at) / RFU FAM211A (11726209_a_at) / Fold change /veh FAM211A (11726209_a_at) / RFU RGS16 (11746705_a_at) / Fold change /veh RGS16 (11746705_a_at) / RFU VCAN (11755009_s_at) / Fold change /veh VCAN (11755009_s_at) / RFU RHOB (11743442_s_at) / Fold change /veh RHOB (11743442_s_at) / RFU RGS16 (11720943_a_at) / Fold change /veh RGS16 (11720943_a_at) / RFU RGS16 (11720944_at) / Fold change /veh RGS16 (11720944_at) / RFU, VPS4B / Fold change vs veh, VPS4B / RFU, CREB1 / Fold change vs veh, CREB1 / RFU, DNAJC13 / Fold change vs veh, DNAJC13 / RFU, GNAQ / Fold change vs veh, GNAQ / RFU, CDK5R1 / Fold change vs veh, CDK5R1 / RFU, ZRANB3 / Fold change vs veh, ZRANB3 / RFU, CUL4A / Fold change vs veh, CUL4A / RFU, CCNY / Fold change vs veh, CCNY / RFU, UFL1 / Fold change vs veh, UFL1 / RFU, COG3 / Fold change vs veh, COG3 / RFU, DIAPH2 / Fold change vs veh, DIAPH2 / RFU, SKA2 / Fold change vs veh, SKA2 / RFU, AFF3 / Fold change vs veh, AFF3 / RFU, LMF1 / Fold change vs veh, LMF1 / RFU, IPO11 / Fold change vs veh, IPO11 / RFU, DFFB / Fold change vs veh, DFFB / RFU, FOXP1 / Fold change vs veh, FOXP1 / RFU, CARD8 / Fold change vs veh, CARD8 / RFU, STRN3 / Fold change vs veh, STRN3 / RFU, ADK / Fold change vs veh, ADK / RFU, RASSF2 / Fold change vs veh, RASSF2 / RFU, WIPF1 / Fold change vs veh, WIPF1 / RFU, LARP1B / Fold change vs veh, LARP1B / RFU, RASA1 / Fold change vs veh, RASA1 / RFU, RB1 / Fold change vs veh, RB1 / RFU, PPFIA1 / Fold change vs veh, PPFIA1 / RFU, MAT2A / Fold change vs veh, MAT2A / RFU, CCT5 / Fold change vs veh, CCT5 / RFU, WDR92 / Fold change vs veh, WDR92 / RFU, CUX1 / Fold change vs veh, CUX1 / RFU, TTC7A / Fold change vs veh, TTC7A / RFU, TMEM135 / Fold change vs veh, TMEM135 / RFU, DEPTOR / Fold change vs veh, DEPTOR / RFU, CPM / Fold change vs veh, CPM / RFU, DNAJB6 / Fold change vs veh, DNAJB6 / RFU, CACNA2D3 / Fold change vs veh, CACNA2D3 / RFU, DTX4 / Fold change vs veh, DTX4 / RFU, TFCP2 / Fold change vs veh, TFCP2 / RFU, GMCL1 /// GMCL1P1 / Fold change vs veh, GMCL1 /// GMCL1P1 / RFU, AEBP2 / Fold change vs veh, AEBP2 / RFU, SNHG1 /// SNORD22 /// SNORD25 /// SNORD26 /// SNORD27 /// SNORD28 /// SNORD29 /// SNORD31 / Fold change vs veh, SNHG1 /// SNORD22 /// SNORD25 /// SNORD26 /// SNORD27 /// SNORD28 /// SNORD29 /// SNORD31 / Fold change (Aza/veh), C12orf56 (ProbeSet 11735607_a_at) / Fold change (ACY-1035/veh), C12orf56 (ProbeSet 11735607_a_at) / Fold change (Aza/veh), FGFR1OP (ProbeSet 11751329_s_at) / Fold change (ACY-1035/veh), FGFR1OP (ProbeSet 11751329_s_at) / Fold change (Aza/veh), VPS36 (ProbeSet 11739960_a_at) / Fold change (ACY-1035/veh), VPS36 (ProbeSet 11739960_a_at) / RFU SYPL1 (11715823_x_at) / Fold change /veh SYPL1 (11715823_x_at) / RFU IGFBP7 (11715501_s_at) / Fold change /veh IGFBP7 (11715501_s_at) / RFU REEP3 (11722064_at) / Fold change /veh REEP3 (11722064_at) / RFU IGLL1 (11728026_x_at) / Fold change /veh IGLL1 (11728026_x_at): dose or concentration left out as unconfirmed
Conditions: MV-4-11 cells, 48 hours

With `Nc1ncn([C@@H]2O[C@H](CO)[C@@H](O)[C@H]2O)c(=O)n1` [azacitidine] the “RFU HLA-DPB1 (11760878_x_at)” value was 15.97 RFU.

— article PMC5218480 (PLoS ONE, 2017)
